Assay results taken from US8192962B2, “Processes for detecting toxic substances” (Daikin Industries, Ltd., priority 2001, dated 2012).

Test system: Energy system protein genes
Test: DNA chip mRNA expression in yeast, energy system protein genes (Table 4)
Assay type: cell-based, Saccharomyces cerevisiae S288C
In short: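 Whole-genome yeast DNA chip hybridization (65° C., >12 h) of Cy-labeled cDNA from S288C cells exposed 2 h at 25° C. to a sub-lethal toxicant dose in YPD; value is intensity relative to chemical-free control.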

## Na2As [(1)]
Yeast gene YAL060W
  The level of expressed mRNA in the presence of chemical substance/The level of expressed mRNA in the absence of chemical substance: 1.1
Yeast gene YBL058W, cells incubated two hours with the chemical substance
  The level of expressed mRNA in the presence of chemical substance/The level of expressed mRNA in the absence of chemical substance: 0.9
Yeast gene YBL099W, cells incubated two hours with the chemical substance
  The level of expressed mRNA in the presence of chemical substance/The level of expressed mRNA in the absence of chemical substance: 0.8
Yeast gene YBR001C, cells incubated two hours with the chemical substance
  The level of expressed mRNA in the presence of chemical substance/The level of expressed mRNA in the absence of chemical substance: 0.9
Yeast gene YBR185C, cells incubated two hours with the chemical substance
  The level of expressed mRNA in the presence of chemical substance/The level of expressed mRNA in the absence of chemical substance: 1.5
Yeast gene YBR221C, cells incubated two hours with the chemical substance
  The level of expressed mRNA in the presence of chemical substance/The level of expressed mRNA in the absence of chemical substance: 0.8
Yeast gene YCL040W
  The level of expressed mRNA in the presence of chemical substance/The level of expressed mRNA in the absence of chemical substance: 0.9
Yeast gene YCR012W
  The level of expressed mRNA in the presence of chemical substance/The level of expressed mRNA in the absence of chemical substance: 1.2
Yeast gene YCR046C, cells incubated two hours with the chemical substance
  The level of expressed mRNA in the presence of chemical substance/The level of expressed mRNA in the absence of chemical substance: 1.0
Yeast gene YCR105W, cells incubated two hours with the chemical substance
  The level of expressed mRNA in the presence of chemical substance/The level of expressed mRNA in the absence of chemical substance: 2.2
Yeast gene YDL021W
  The level of expressed mRNA in the presence of chemical substance/The level of expressed mRNA in the absence of chemical substance: 5.1
Yeast gene YDL067C, cells incubated two hours with the chemical substance
  The level of expressed mRNA in the presence of chemical substance/The level of expressed mRNA in the absence of chemical substance: 1.8
Yeast gene YDL078C, cells incubated two hours with the chemical substance
  The level of expressed mRNA in the presence of chemical substance/The level of expressed mRNA in the absence of chemical substance: 0.7
Yeast gene YDL107W, cells incubated two hours with the chemical substance
  The level of expressed mRNA in the presence of chemical substance/The level of expressed mRNA in the absence of chemical substance: 1.3
Yeast gene YDL174C
  The level of expressed mRNA in the presence of chemical substance/The level of expressed mRNA in the absence of chemical substance: 0.9
Yeast gene YDL181W, cells incubated two hours with the chemical substance
  The level of expressed mRNA in the presence of chemical substance/The level of expressed mRNA in the absence of chemical substance: 1.4
Yeast gene YDR001C
  The level of expressed mRNA in the presence of chemical substance/The level of expressed mRNA in the absence of chemical substance: 1.0
Yeast gene YDR050C, cells incubated two hours with the chemical substance
  The level of expressed mRNA in the presence of chemical substance/The level of expressed mRNA in the absence of chemical substance: 1.9
Yeast gene YDR079W, cells incubated two hours with the chemical substance
  The level of expressed mRNA in the presence of chemical substance/The level of expressed mRNA in the absence of chemical substance: 1.3
Yeast gene YDR178W, cells incubated two hours with the chemical substance
  The level of expressed mRNA in the presence of chemical substance/The level of expressed mRNA in the absence of chemical substance: 2.0
Yeast gene YDR231C
  The level of expressed mRNA in the presence of chemical substance/The level of expressed mRNA in the absence of chemical substance: 1.1
Yeast gene YDR298C, cells incubated two hours with the chemical substance
  The level of expressed mRNA in the presence of chemical substance/The level of expressed mRNA in the absence of chemical substance: 1.3
Yeast gene YDR377W, cells incubated two hours with the chemical substance
  The level of expressed mRNA in the presence of chemical substance/The level of expressed mRNA in the absence of chemical substance: 1.3
Yeast gene YDR529C, cells incubated two hours with the chemical substance
  The level of expressed mRNA in the presence of chemical substance/The level of expressed mRNA in the absence of chemical substance: 1.8
Yeast gene YEL024W, cells incubated two hours with the chemical substance
  The level of expressed mRNA in the presence of chemical substance/The level of expressed mRNA in the absence of chemical substance: 1.5
Yeast gene YEL039C, cells incubated two hours with the chemical substance
  The level of expressed mRNA in the presence of chemical substance/The level of expressed mRNA in the absence of chemical substance: 1.1
Yeast gene YER178W
  The level of expressed mRNA in the presence of chemical substance/The level of expressed mRNA in the absence of chemical substance: 0.8
Yeast gene YFL057C
  The level of expressed mRNA in the presence of chemical substance/The level of expressed mRNA in the absence of chemical substance: 20.9
Yeast gene YFR053C
  The level of expressed mRNA in the presence of chemical substance/The level of expressed mRNA in the absence of chemical substance: 1.8
Yeast gene YGL018C, cells incubated two hours with the chemical substance
  The level of expressed mRNA in the presence of chemical substance/The level of expressed mRNA in the absence of chemical substance: 1.5
Yeast gene YGL062W
  The level of expressed mRNA in the presence of chemical substance/The level of expressed mRNA in the absence of chemical substance: 0.6
Yeast gene YGL187C, cells incubated two hours with the chemical substance
  The level of expressed mRNA in the presence of chemical substance/The level of expressed mRNA in the absence of chemical substance: 1.5
Yeast gene YGL191W, cells incubated two hours with the chemical substance
  The level of expressed mRNA in the presence of chemical substance/The level of expressed mRNA in the absence of chemical substance: 2.3
Yeast gene YGL205W, cells incubated two hours with the chemical substance
  The level of expressed mRNA in the presence of chemical substance/The level of expressed mRNA in the absence of chemical substance: 1.0
Yeast gene YGL256W, cells incubated two hours with the chemical substance
  The level of expressed mRNA in the presence of chemical substance/The level of expressed mRNA in the absence of chemical substance: 0.9
Yeast gene YGR043C
  The level of expressed mRNA in the presence of chemical substance/The level of expressed mRNA in the absence of chemical substance: 2.6
Yeast gene YGR062C, cells incubated two hours with the chemical substance, 25° C., YPD medium
  The level of expressed mRNA in the presence of chemical substance/The level of expressed mRNA in the absence of chemical substance: 0.9
Yeast gene YGR087C, cells incubated two hours with the chemical substance
  The level of expressed mRNA in the presence of chemical substance/The level of expressed mRNA in the absence of chemical substance: 1.0
Yeast gene YGR174C, cells incubated two hours with the chemical substance
  The level of expressed mRNA in the presence of chemical substance/The level of expressed mRNA in the absence of chemical substance: 1.1
Yeast gene YGR192C
  The level of expressed mRNA in the presence of chemical substance/The level of expressed mRNA in the absence of chemical substance: 1.4
Yeast gene YGR244C
  The level of expressed mRNA in the presence of chemical substance/The level of expressed mRNA in the absence of chemical substance: 1.0
Yeast gene YGR254W
  The level of expressed mRNA in the presence of chemical substance/The level of expressed mRNA in the absence of chemical substance: 1.2
Yeast gene YHR179W
  The level of expressed mRNA in the presence of chemical substance/The level of expressed mRNA in the absence of chemical substance: 3.3
Yeast gene YIL160C
  The level of expressed mRNA in the presence of chemical substance/The level of expressed mRNA in the absence of chemical substance: 0.8
Yeast gene YIR031C, cells incubated two hours with the chemical substance
  The level of expressed mRNA in the presence of chemical substance/The level of expressed mRNA in the absence of chemical substance: 0.9
Yeast gene YJL052W
  The level of expressed mRNA in the presence of chemical substance/The level of expressed mRNA in the absence of chemical substance: 1.6
Yeast gene YJL121C, cells incubated two hours with the chemical substance
  The level of expressed mRNA in the presence of chemical substance/The level of expressed mRNA in the absence of chemical substance: 1.0
Yeast gene YJL166W, cells incubated two hours with the chemical substance
  The level of expressed mRNA in the presence of chemical substance/The level of expressed mRNA in the absence of chemical substance: 2.1
Yeast gene YJL216C, cells incubated two hours with the chemical substance
  The level of expressed mRNA in the presence of chemical substance/The level of expressed mRNA in the absence of chemical substance: 1.1
Yeast gene YJR009C
  The level of expressed mRNA in the presence of chemical substance/The level of expressed mRNA in the absence of chemical substance: 1.1
